# In patent publication US5882851A, “Cytochrome P-450 monooxygenases” (Novartis Finance Corporation, priority 1993, dated 1999):
# Biological target: T1, P-450TYR expressed in E. coli (Sorghum bicolor, UniProt Q43135)
# T1 construct: in which the 35 N-terminal amino acids are replaced by the nine N-terminal amino acids from bovine 17α hydroxylase; nine N-terminal amino acids from bovine 17alpha-hydroxylase (replace the 35 N-terminal residues) (N); made in house; host or cells: E. coli JM109, vector pSP19g10L
# Assay: Substrate binding spectra of P-450TYR expressed in E. coli
# From the text: Cytochrome P-450TYR in the oxidized state has a strong absorption peak at 420 nm, representing the low spin state of the iron of the heme group. The binding of a ligand to the heme group shifts the absorption maximum by changing the spin state of the iron. Binding of tyrosine at the catalytic site of cytochrome P-450TYR induces a change of the spin state of the oxidized iron from low to high spin, and thereby changes the absorption maximum from 420 nm to 390 nm producing a type I spectrum (Jefcoate, Methods in Enzymology 52:258-279, 1978). The following experimental procedure is used to obtain the substrate binding spectrum: two identical cuvettes containing a buffered solution of the isolated cytochrome P-450 are prepared. The substrate of the enzyme is added to the sample cuvette whereas the same volume of buffer is added to the other cuvette. The difference spectrum is then recorded in an SLM-Aminco DW2c spectrophotometer. The absorption difference, A390-420, is proportional to the concentration of cytochrome P-450TYR with a bound substrate at its active site. If a saturating concentration of substrate is added to the sample cuvette, the absorption difference is proportional to the concentration of the substrate specific cytochrome P-450 in the cuvettes. The saturating concentration of the substrate is determined by titrating the cytochrome P-450 sample with increasing amounts of substrate and monitoring A390-420.
# A modified cytocrome P-450TYR, in which the 35 N-terminal amino acids are replaced by the nine N-terminal amino acids from bovine 17α hydroxylase is introduced into the expression vector pSP19g10L which can be obtained from Dr. Henry Barnes (La Jolla, Calif.). This plasmid contains the lac Z promoter fused with the known short leader sequence (g10L) of gene 10 from bacteriophage T7 (Olin et al, 1988). A construct containing the N-terminal amino acids from bovine 17α hydroxylase and a truncated form of the P-450TYR gene is designed using PCR mutagenesis: Oligonucleotide TYROL 1d (5'-CGGGATCCATATGGCTCTGTTATTAGCAGTTTTTCTGTCGTACCTGGCCCG-3'; SEQ ID NO 23) containing a 5' mutant cDNA sequence as well as a BamHI and NdeI restriction site is used together with oligonucleotide TYROL 3 comprising the sequence surrounding the unique BamHI restriction site downstream of the ATG start codon of the cDNA coding for P-450TYR to amplify a modified N-terminal sequence of P-450TYR. The amplification product is cut with NdeI and BamHI restriction enzymes. To introduce a HindIII site immediately downstream of the stop codon of the P-450TYR gene, oligonucleotides TYROL 2 and TYROL 4 are used in a polymerase chain reaction to obtain a C-terminal fragment of the P-450TYR gene comprising a HindIII restriction site immediately downstream of the stop codon. The amplification product is cut with PstI and HindIII restriction enzymes. The complete expression plasmid is constructed by simultaneous ligation of the N-terminal NdeI/BamHI fragment, the BamHI/PstI fragment of the P-450TYR gene and the C-terminal PstI/HindIII fragment into NdeI/HindIII cleaved pSP19g10L vector DNA. The expression vector obtained is transformed into E. coli strain JM109. Transformed E. coli produce 300 nmol to 500 nmol cytochrome P-450TYR per liter cell culture upon growth at 28° C. in the presence of 1 mM isopropyl-β-D-thiogalactopyranoside and at 125 rpm. Expression levels as high as 900 nmol per liter, equivalent to 55 mg P-450TYR per liter, have been obtained. […]
# T1 sequence (Q43135 other isoform, or with tags, fused parts or gaps): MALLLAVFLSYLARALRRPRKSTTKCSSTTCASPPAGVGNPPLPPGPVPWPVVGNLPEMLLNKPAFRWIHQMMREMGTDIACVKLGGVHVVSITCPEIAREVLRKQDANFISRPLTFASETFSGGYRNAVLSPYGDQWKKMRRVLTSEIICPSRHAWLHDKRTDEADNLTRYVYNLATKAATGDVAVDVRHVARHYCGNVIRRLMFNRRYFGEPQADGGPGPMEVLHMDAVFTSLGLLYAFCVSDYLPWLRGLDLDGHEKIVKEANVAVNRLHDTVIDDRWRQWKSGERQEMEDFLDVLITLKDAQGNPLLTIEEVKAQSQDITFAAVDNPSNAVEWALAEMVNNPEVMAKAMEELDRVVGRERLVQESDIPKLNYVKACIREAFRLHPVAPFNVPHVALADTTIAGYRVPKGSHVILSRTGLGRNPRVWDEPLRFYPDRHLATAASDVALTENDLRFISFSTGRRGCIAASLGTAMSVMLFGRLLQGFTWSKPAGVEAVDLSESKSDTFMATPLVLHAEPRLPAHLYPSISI
smiles,measurement,value
"N[C@@H](Cc1ccc(O)cc1)C(=O)O [tyrosine, L-tyrosine]",molar extinction coefficient E420-390,75.8 cm⁻¹ mM⁻¹
